In patent US5073563A, “Alkoxycoumarins substituted by a heterocyclic radical, their preparation and therapeutic agents containing these compounds” (BASF Aktiengesellschaft, priority 1988, dated 1991):

Columns and labels:
MAO B = target: T1, MAO B (Rattus norvegicus, UniProt P19643); test: MAO B inhibition in dilute rat brain homogenate (14C substrate, 20 min at 37° C); assay type: biochemical; conditions: for IC50 ratio MAO A / MAO B: quotient of IC50 MAO A and IC50 MAO B (selectivity for MAO B), 20 min; for IC50: rat brain homogenate, 14C-phenylethylamine or 14C-tryptamine 0.4 μmol/l, 20 minutes at 37° C, logit-log regression
T1 construct: determined in dilute rat brain homogenate; from tissue; host or cells: rat brain homogenate
T1 sequence (P19643 1-520): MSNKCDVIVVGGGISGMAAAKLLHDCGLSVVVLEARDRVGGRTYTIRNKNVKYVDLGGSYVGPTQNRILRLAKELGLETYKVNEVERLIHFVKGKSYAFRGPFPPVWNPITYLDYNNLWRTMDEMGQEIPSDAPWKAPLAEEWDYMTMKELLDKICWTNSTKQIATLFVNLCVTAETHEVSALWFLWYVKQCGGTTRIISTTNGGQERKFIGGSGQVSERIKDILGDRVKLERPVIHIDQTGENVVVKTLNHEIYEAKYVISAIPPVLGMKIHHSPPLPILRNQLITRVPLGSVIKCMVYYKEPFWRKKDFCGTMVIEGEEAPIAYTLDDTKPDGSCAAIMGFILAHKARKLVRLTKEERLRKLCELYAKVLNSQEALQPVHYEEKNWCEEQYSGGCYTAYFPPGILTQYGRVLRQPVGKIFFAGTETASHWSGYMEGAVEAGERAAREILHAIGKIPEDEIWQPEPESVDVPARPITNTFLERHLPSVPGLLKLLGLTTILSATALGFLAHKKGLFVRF
Protocol: (§1) The MAO-inhibiting activity of the novel compounds can be determined using standard methods. […] The mixture was incubated for 20 minutes at 37° C.
(§2) The blank value was determined in similar mixtures with an incubation time of t=0 min.
(§3) From the inhibitory values determined at the various inhibitor concentrations against a control, the mean inhibitory concentration (IC50) was calculated by linear regression following logit-log transformation.

MAO A = target: T2, MAO A (Rattus norvegicus, UniProt P21396); test: MAO A inhibition in dilute rat brain homogenate (14C substrate, 20 min at 37° C); assay type: biochemical; conditions: 14C-phenylethylamine or 14C-tryptamine 0.4 μmol/l, logit-log regression
T2 construct: determined in dilute rat brain homogenate; from tissue; host or cells: rat brain homogenate
T2 sequence (P21396 1-526): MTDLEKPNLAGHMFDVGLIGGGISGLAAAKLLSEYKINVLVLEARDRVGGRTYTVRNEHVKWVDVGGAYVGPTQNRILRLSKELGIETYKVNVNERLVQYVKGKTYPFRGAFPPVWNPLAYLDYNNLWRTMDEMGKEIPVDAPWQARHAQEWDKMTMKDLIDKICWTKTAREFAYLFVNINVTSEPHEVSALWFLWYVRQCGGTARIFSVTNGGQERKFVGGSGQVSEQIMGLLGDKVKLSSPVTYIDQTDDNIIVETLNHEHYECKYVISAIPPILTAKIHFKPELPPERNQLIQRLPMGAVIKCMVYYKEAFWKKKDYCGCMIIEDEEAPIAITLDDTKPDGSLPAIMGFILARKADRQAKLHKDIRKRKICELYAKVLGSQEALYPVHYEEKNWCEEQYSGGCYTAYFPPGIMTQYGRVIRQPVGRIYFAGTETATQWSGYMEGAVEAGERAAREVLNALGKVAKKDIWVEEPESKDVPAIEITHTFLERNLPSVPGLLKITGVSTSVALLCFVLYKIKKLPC
Protocol: as §1, §2, §3

IC50 ratio MAO A / MAO B (MAO B)	IC50 (MAO A) [nM]	IC50 (MAO B) [nM]	SMILES
370			Cc1nnc(COc2ccc3c(C)c(C)c(=O)oc3c2)o1 [Example 1, 3,4-Dimethyl-7-(2-methyl-1,3,4-oxadiazol-5-yl)-methoxycoumarin]
1200	3600	3	Cc1nnc(COc2ccc3c(C)c(C)c(=O)oc3c2)s1 [Example 2, 3,4-Dimethyl-7-(2-methyl-1,3,4-thiadiazol-5-yl)-methoxycoumarin]
710	1500	2.1	Cc1cc(COc2ccc3c(C)c(C)c(=O)oc3c2)on1 [Example 3, 3,4-Dimethyl-7-(3-methylisoxazol-5-yl)-methoxycoumarin]
~ 5900	~10000	1.7	CCCc1cc(COc2ccc3c(C)c(C)c(=O)oc3c2)on1 [Example 4, 3,4-Dimethyl-7-(3-n-propylisoxazol-5-yl)-methoxycoumarin]
~ 2200	~10000	4.6	COCc1cc(COc2ccc3c(C)c(C)c(=O)oc3c2)on1 [Example 6, 7-(3-Methoxymethylisoxazol-5-yl)-methoxy-3,4-dimethylcoumarin]
~ 900	~10000	11	CCc1nnc(COc2ccc3c(C)c(C)c(=O)oc3c2)o1 [Example 7, 7-(2-Ethyl-1,3,4-oxadiazol-5-yl)-methoxy-3,4-dimethylcoumarin]
> 4500	> 10000	2.2	Cc1c(Cl)c(=O)oc2cc(OCc3csc(C4CC4)n3)c(Cl)cc12 [Example 10, 3,6-Dichloro-4-methyl-7-(2-cyclopropylthiazol-4-yl)-methoxycoumarin]
> 667	> 10000	15	Cc1nnc(COc2ccc3cc(C)c(=O)oc3c2)s1 [Example 13, 3-Methyl-7-(2-methyl-1,3,4-thiadiazol-5-yl)-methoxycoumarin]
~ 1300	~10000	7.7	Cc1c(C)c2ccc(OCC3COc4ccccc4O3)cc2oc1=O (stereo not drawn) [Example 21, 7-(Benzodioxan-2-yl)-methoxy-3,4-dimethylcoumarin]
> 6250	> 10000	1.6	Cc1c(C)c2ccc(OCc3coc(Cc4ccccc4)c3)cc2oc1=O [Example 22, 7-(2-Benzylfuran-4-yl)-methoxy-3,4-dimethylcoumarin]
~ 3300	~10000	3	Cc1nc(COc2ccc3c(C)c(C)c(=O)oc3c2)cs1 [Example 24, 3,4-Dimethyl-7-(2-methylthiazol-4-yl)-methoxycoumarin]
> 590	> 10000	17	Cc1c(C)c2ccc(OCc3coc(Cc4cccc(Cl)c4)c3)cc2oc1=O [Example 25, 7-[2-(3-Chlorobenzyl)-furan-4-yl]-methoxy-3,4-dimethylcoumarin]
> 7700		1.3	Cc1c(C)c2ccc(OCc3nc(C(C)C)no3)cc2oc1=O [Example 26, 7-(3-Iospropyl-1,2,4-oxadiazol-5-yl)-methoxy-3,4-dimethylcoumarin]
> 4500	> 10000	2.2	Cc1c(C)c2ccc(OCc3cc(C(C)C)n(C)n3)cc2oc1=O [Example 29, 7-(5-Isopropyl-1-methylpyrazol-3-yl)-methoxy-3,4-dimethylcoumarin]
> 1700	> 10000	5.7	Cc1nnc(COc2ccc3c(C)c(Cl)c(=O)oc3c2)s1 [Example 30, 3-Chloro-4-methyl-7-(2-methyl-1,3,4-thiadiazol-5-yl)-methoxycoumarin]
> 1400	> 10000	7.1	Cc1nnc(COc2ccc3c4c(c(=O)oc3c2)CCCC4)s1 [Example 32, 3,4-Tetramethylen-7-(2-methyl-1,3,4-thiadiazol-5-yl)-methoxycoumarin]

IC50 ratio MAO A / MAO B (MAO B)	IC50 (MAO A) [nM]	IC50 (MAO B) [nM]	SMILES
~ 8200	~6000	0.73	Cc1c(C)c2ccc(OCc3cc(C(C)C)no3)cc2oc1=O [Example 33, 7-(3-Isopropylisoxazol-5-yl)-methoxy-3,4-dimethylcoumarin]
~ 4500	~10000	2.2	Cc1c(C)c2ccc(OCc3cc(CC(C)C)no3)cc2oc1=O [Example 34, 7-(3-Isobutylisoxazol-5-yl)-methoxy-3,4-dimethylcoumarin]
> 11000	> 10000	0.92	Cc1c(C)c2ccc(OCc3cc(C(C)(C)C)no3)cc2oc1=O [Example 35, 7-(3-tert-Butylisoxazol-5-yl)-methoxy-3,4-dimethylcoumarin]
680	350	0.51	Cc1ccc(COc2ccc3c(C)c(C)c(=O)oc3c2)s1 [Example 42, 3,4-Dimethyl-7-(2-methylthiophen-5-yl)-methoxycoumarin]
~ 5800	~7000	1.2	Cc1c(C)c2ccc(OCc3nc(C4CC4)no3)cc2oc1=O [Example 44, 3,4-Dimethyl-7-(3-cyclopropyl-1,2,4-oxadiazol-5-yl)-methoxycoumarin]
450	230	0.51	Cc1ccsc1COc1ccc2c(C)c(C)c(=O)oc2c1 [Example 45, 3,4-Dimethyl-7-(3-methylthiophen-2-yl)-methoxycoumarin]
~ 930	~4000	4.3	Cc1noc(COc2ccc3c(C)c(C)c(=O)oc3c2)n1 [Example 50, 3,4-Dimethyl-7-(3-methyl-1,2,4-oxadiazol-5-yl)-methoxycoumarin]
> 12500	> 10000	0.8	Cc1c(C)c2ccc(OCc3cc(C4CC4)no3)cc2oc1=O [Example 51, 7-(3-Cyclopropylisoxazol-5-yl)-methoxy-3,4-dimethylcoumarin]
> 6700	> 10000	1.5	Cc1c(Cl)c(=O)oc2cc(OCc3cc(C(C)C)n(C)n3)ccc12 [Example 54, 3-Chloro-7-(5-isopropyl-1-methylpyrazol-3yl)-methoxy-4-methylcoumarin]
> 1000	> 10000	10	CC(C)c1cc(COc2ccc3c4c(c(=O)oc3c2)CCCC4)nn1C [Example 55, 7-(5-Isopropyl-1-methylpyrazol-3-yl)-methoxy-3,4-tetramethylenecoumarin]
~ 8300	~7000	0.84	Cc1c(C)c2ccc(OCc3cc(C4CC4)on3)cc2oc1=O [Example 58, 7-(5-Cyclopropylisoxazol-3-yl)-methoxy-3,4-dimethylcoumarin]
> 1100	> 10000	1.9	Cc1c(C)c2ccc(OCc3cc(C4CC4)n(C)n3)cc2oc1=O [Example 61, 7-(5-Cyclopropyl-1-methylpyrazol-3-yl)-methoxy-3,4-dimethylcoumarin]
> 1300	> 10000	7.5	CCOc1nnc(COc2ccc3c(C)c(C)c(=O)oc3c2)s1 [Example 62, 7-(2-Ethoxy-1,3,4-thiadiazol-5-yl)-methoxy-3,4-dimethylcoumarin]
> 9100	> 10000	1.1	Cc1nnc(COc2cc3oc(=O)c(C)c(C)c3cc2Br)s1 [Example 67, 6-Bromo-3,4-dimethyl-7-(2methyl-1,3,4-thiadiazol-5-yl)-methoxycoumarin]
> 13000	> 10000	0.77	Cc1c(C)c2ccc(OCc3cc(C4CCC4)no3)cc2oc1=O [Example 68, 7-(3-Cyclobutylisoxazol-5-yl)-methoxy-3,4-dimethylcoumarin]
